This passage reports melting point results from patent US10899699B2, “Vinylogous phenethylamines as neurotransmitter releasers” (RESEARCH TRIANGLE INSTITUTE, priority 2016, dated 2021).

Structures can show the parent of a compound that is named as a salt.

Turning to `C[C@H](N)CC#Cc1ccccc1` (as salt: hydrochloride) [S-4, (1S)-1-Methyl-4-phenyl-but-3-ynylamine], the melting point was 141 to 142 °C.
For `CC(N)CC#Cc1ccccc1` (racemic) (as salt: hydrochloride) [compound 4, 1-Methyl-4-phenyl-but-3-ynylamine] the value was 131 to 132 °C.
For `C[C@@H](N)CC#Cc1ccccc1` (as salt: hydrochloride) [R-4, (1R)-1-Methyl-4-phenyl-but-3-ynylamine] the value was 143 to 144 °C; for `C[C@H](N)C/C=C/c1ccccc1` (as salt: hydrochloride) [S-6, (1S,3E)-1-Methyl-4-phenyl-but-3-enylamine], 172 to 173 °C; for `CC(N)/C=C/c1ccccc1` (centres unmarked) (as salt: hydrochloride) [compound 10, (2E)-1-Methyl-3-phenyl-prop-2-enylamine], 151 to 152 °C.
Next, `C[C@H](N)C/C=C\c1ccccc1` (as salt: hydrochloride) [S-8, (1S,3Z)-1-Methyl-4-phenyl-but-3-enylamine]: 83 to 84 °C; `CC(N)C/C=C/c1ccccc1` (racemic) (as salt: hydrochloride) [compound 6, (3E)-1-Methyl-4-phenyl-but-3-enylamine]: 147 to 148 °C.
Turning to `C[C@@H](N)C/C=C\c1ccccc1` (as salt: hydrochloride) [R-8, (1R,3Z)-1-Methyl-4-phenyl-but-3-enylamine], the melting point was 83 to 84 °C.
For `C[C@@H](N)C/C=C/c1ccccc1` (as salt: hydrochloride) [R-6, (1R,3E)-1-Methyl-4-phenyl-but-3-enylamine] the value was 172 to 174 °C; for `CC(N)/C=C\c1ccccc1` (centres unmarked) (as salt: hydrochloride) [compound 11, (2Z)-1-Methyl-3-phenyl-prop-2-enylamine], 149 to 151 °C; for `CC(N)C/C=C\c1ccccc1` (racemic) (as salt: hydrochloride) [compound 8, (3Z)-1-Methyl-4-phenyl-but-3-enylamine], 115 to 117 °C.
